# Assay results taken from ChEMBL document CHEMBL1649524, “Resistance selection studies comparing the activity of razupenem (PTZ601) to vancomycin and linezolid against eight methicillin-resistant and two methicillin-susceptible Staphylococcus aureus strains” (2009).
# Columns and labels:
# Assay type in all cases: functional
# [1] = tested on: Staphylococcus aureus; assay: Antimicrobial activity against methicillin-susceptible Staphylococcus aureus 543 after 50 passages by macrodilution method
# [2] = tested on: Staphylococcus aureus; assay: Antimicrobial activity against methicillin-resistant Staphylococcus aureus 525 measured on day 30 by macrodilution method
# [3] = tested on: Staphylococcus aureus; assay: Antimicrobial activity against methicillin-resistant Staphylococcus aureus 547 by macrodilution method
# [4] = tested on: Staphylococcus aureus; assay: Antimicrobial activity against methicillin-susceptible Staphylococcus aureus 540 measured on day 30 by macrodilution method
# [5] = tested on: Staphylococcus aureus; assay: Antimicrobial activity against methicillin-resistant Staphylococcus aureus 525 measured on day 40 by macrodilution method
# [6] = tested on: Staphylococcus aureus; assay: Antimicrobial activity against vancomycin-intermediate Staphylococcus aureus 1287 after 18 passages by macrodilution method
# [7] = tested on: Staphylococcus aureus; assay: Antimicrobial activity against methicillin-resistant Staphylococcus aureus 547 after 23 passages by macrodilution method
# [8] = tested on: Staphylococcus aureus; assay: Antimicrobial activity against methicillin-resistant Staphylococcus aureus 547 measured on day 15 by macrodilution method; conditions: Staphylococcus aureus, 547, 360 h
# [9] = tested on: Staphylococcus aureus; assay: Antimicrobial activity against vancomycin-resistant Staphylococcus aureus 510 after 50 passages by macrodilution method
# [10] = tested on: Staphylococcus aureus; assay: Antimicrobial activity against heterogeneous vancomycin-intermediate Staphylococcus aureus 873 measured on day 35 by macrodilution method
# [11] = tested on: Staphylococcus aureus; assay: Antimicrobial activity against vancomycin-intermediate Staphylococcus aureus 1287 measured on day 50 by macrodilution method
# [12] = tested on: Staphylococcus aureus; assay: Antimicrobial activity against methicillin-susceptible Staphylococcus aureus 543 measured on day 5 by macrodilution method; conditions: Staphylococcus aureus, 543, 120 h
# [13] = tested on: Staphylococcus aureus; assay: Antimicrobial activity against methicillin-susceptible Staphylococcus aureus 543 measured on day 25 by macrodilution method; conditions: Staphylococcus aureus, 543, 600 h
# [14] = tested on: Staphylococcus aureus; assay: Antimicrobial activity against vancomycin-resistant Staphylococcus aureus 510 by macrodilution method
# [15] = tested on: Staphylococcus aureus; assay: Antimicrobial activity against vancomycin-resistant Staphylococcus aureus 510 measured on day 15 by macrodilution method; conditions: Staphylococcus aureus, 510, 360 h
# [16] = tested on: Staphylococcus aureus; assay: Antimicrobial activity against vancomycin-resistant Staphylococcus aureus 509 after 50 passages by macrodilution method
# [17] = tested on: Staphylococcus aureus; assay: Antimicrobial activity against vancomycin-intermediate Staphylococcus aureus 555 measured on day 35 by macrodilution method
# [18] = tested on: Staphylococcus aureus; assay: Antimicrobial activity against methicillin-susceptible Staphylococcus aureus 540 after 49 passages by macrodilution method
# [19] = tested on: Staphylococcus aureus; assay: Antimicrobial activity against vancomycin-resistant Staphylococcus aureus 510 measured on day 5 by macrodilution method; conditions: Staphylococcus aureus, 510, 120 h
# [20] = tested on: Staphylococcus aureus; assay: Antimicrobial activity against methicillin-resistant Staphylococcus aureus 547 measured on day 5 by macrodilution method; conditions: Staphylococcus aureus, 547, 120 h
# [21] = tested on: Staphylococcus aureus; assay: Antimicrobial activity against methicillin-susceptible Staphylococcus aureus 540 measured after 10 antibiotic-free subculturing by macrodilution method
# [22] = tested on: Staphylococcus aureus; assay: Antimicrobial activity against methicillin-susceptible Staphylococcus aureus 543 measured on day 10 by macrodilution method; conditions: Staphylococcus aureus, 543, 240 h
# [23] = tested on: Staphylococcus aureus; assay: Antimicrobial activity against vancomycin-resistant Staphylococcus aureus 510 measured on day 10 by macrodilution method; conditions: Staphylococcus aureus, 510, 240 h
# [24] = tested on: Staphylococcus aureus; assay: Antimicrobial activity against methicillin-resistant Staphylococcus aureus 547 measured on day 45 by macrodilution method
# [25] = tested on: Staphylococcus aureus; assay: Antimicrobial activity against heterogeneous vancomycin-intermediate Staphylococcus aureus 168 measured on day 40 by macrodilution method
# [26] = tested on: Staphylococcus aureus; assay: Antimicrobial activity against methicillin-resistant Staphylococcus aureus 547 measured on day 35 by macrodilution method
# [27] = tested on: Staphylococcus aureus; assay: Antimicrobial activity against methicillin-resistant Staphylococcus aureus 525 measured on day 35 by macrodilution method
# [28] = tested on: Staphylococcus aureus; assay: Antimicrobial activity against vancomycin-resistant Staphylococcus aureus 510 measured on day 50 by macrodilution method
# [29] = tested on: Staphylococcus aureus; assay: Antimicrobial activity against vancomycin-resistant Staphylococcus aureus 509 measured on day 5 by macrodilution method; conditions: Staphylococcus aureus, 509, 120 h
# [30] = tested on: Staphylococcus aureus; assay: Antimicrobial activity against methicillin-susceptible Staphylococcus aureus 540 measured on day 5 by macrodilution method; conditions: Staphylococcus aureus, 540, 120 h
# [31] = tested on: Staphylococcus aureus; assay: Antimicrobial activity against methicillin-susceptible Staphylococcus aureus 540 measured on day 35 by macrodilution method
# [32] = tested on: Staphylococcus aureus; assay: Antimicrobial activity against methicillin-resistant Staphylococcus aureus 525 measured on day 45 by macrodilution method
# [33] = tested on: Staphylococcus aureus; assay: Antimicrobial activity against heterogeneous vancomycin-intermediate Staphylococcus aureus 168 measured on day 10 by macrodilution method; conditions: Staphylococcus aureus, 168, 240 h
# [34] = tested on: Staphylococcus aureus; assay: Antimicrobial activity against methicillin-susceptible Staphylococcus aureus 543 measured on day 15 by macrodilution method; conditions: Staphylococcus aureus, 543, 360 h
# [35] = tested on: Staphylococcus aureus; assay: Antimicrobial activity against methicillin-susceptible Staphylococcus aureus 543 measured on day 45 by macrodilution method
# [36] = tested on: Staphylococcus aureus; assay: Antimicrobial activity against methicillin-resistant Staphylococcus aureus 525 measured on day 20 by macrodilution method; conditions: Staphylococcus aureus, 525, 480 h
# [37] = tested on: Staphylococcus aureus; assay: Antimicrobial activity against vancomycin-resistant Staphylococcus aureus 510 measured on day 20 by macrodilution method; conditions: Staphylococcus aureus, 510, 480 h
# [38] = tested on: Staphylococcus aureus; assay: Antimicrobial activity against methicillin-resistant Staphylococcus aureus 547 measured on day 30 by macrodilution method
# [39] = tested on: Staphylococcus aureus; assay: Antimicrobial activity against methicillin-resistant Staphylococcus aureus 525 measured after 10 antibiotic-free subculturing by macrodilution method
# [40] = tested on: Staphylococcus aureus; assay: Antimicrobial activity against methicillin-resistant Staphylococcus aureus 525 by macrodilution method
# [41] = tested on: Staphylococcus aureus; assay: Antimicrobial activity against vancomycin-resistant Staphylococcus aureus 510 measured on day 25 by macrodilution method; conditions: Staphylococcus aureus, 510, 600 h
# [42] = tested on: Staphylococcus aureus; assay: Antimicrobial activity against vancomycin-resistant Staphylococcus aureus 509 measured on day 30 by macrodilution method
# [43] = tested on: Staphylococcus aureus; assay: Antimicrobial activity against heterogeneous vancomycin-intermediate Staphylococcus aureus 168 after 50 passages by macrodilution method
# [44] = tested on: Staphylococcus aureus; assay: Antimicrobial activity against vancomycin-resistant Staphylococcus aureus 509 by macrodilution method
# [45] = tested on: Staphylococcus aureus; assay: Antimicrobial activity against vancomycin-resistant Staphylococcus aureus 510 measured on day 30 by macrodilution method
# [46] = tested on: Staphylococcus aureus; assay: Antimicrobial activity against vancomycin-intermediate Staphylococcus aureus 555 measured on day 25 by macrodilution method; conditions: Staphylococcus aureus, 555, 600 h
# [47] = tested on: Staphylococcus aureus; assay: Antimicrobial activity against methicillin-resistant Staphylococcus aureus 547 measured on day 40 by macrodilution method
# [48] = tested on: Staphylococcus aureus; assay: Antimicrobial activity against vancomycin-intermediate Staphylococcus aureus 555 measured on day 30 by macrodilution method
# [49] = tested on: Staphylococcus aureus; assay: Antimicrobial activity against vancomycin-resistant Staphylococcus aureus 509 measured on day 45 by macrodilution method
# [50] = tested on: Staphylococcus aureus; assay: Antimicrobial activity against heterogeneous vancomycin-intermediate Staphylococcus aureus 873 measured on day 5 by macrodilution method; conditions: Staphylococcus aureus, 873, 120 h
# [51] = tested on: Staphylococcus aureus; assay: Antimicrobial activity against heterogeneous vancomycin-intermediate Staphylococcus aureus 873 measured on day 10 by macrodilution method; conditions: Staphylococcus aureus, 873, 240 h
# [52] = tested on: Staphylococcus aureus; assay: Antimicrobial activity against vancomycin-resistant Staphylococcus aureus 510 measured on day 35 by macrodilution method
smiles,measurement,setting,value
C[C@H]1C=C(c2csc(SC3=C(C(=O)O)N4C(=O)[C@H]([C@@H](C)O)[C@H]4[C@H]3C)n2)CN1 [RAZUPENEM],MIC,[1],0.06 µg/mL
same,MIC,[2],8 µg/mL
same,MIC,[3],0.5 µg/mL
same,MIC,[4],4 µg/mL
same,MIC,[5],16 µg/mL
same,MIC,[6],0.5 µg/mL
same,MIC,[7],4 µg/mL
same,MIC,[8],2 µg/mL
same,MIC,[9],4 µg/mL
same,MIC,[10],16 µg/mL
same,MIC,[11],4 µg/mL
same,MIC,[12],0.03 µg/mL
same,MIC,[13],0.03 µg/mL
same,MIC,[14],1 µg/mL
same,MIC,[15],2 µg/mL
same,MIC,[16],4 µg/mL
same,MIC,[17],4 µg/mL
same,MIC,[18],0.125 µg/mL
same,MIC,[19],2 µg/mL
same,MIC,[20],0.5 µg/mL
same,MIC,[21],0.016 µg/mL
same,MIC,[22],0.03 µg/mL
same,MIC,[23],2 µg/mL
same,MIC,[24],16 µg/mL
same,MIC,[25],8 µg/mL
same,MIC,[26],16 µg/mL
same,MIC,[27],16 µg/mL
same,MIC,[28],4 µg/mL
same,MIC,[29],2 µg/mL
same,MIC,[30],0.016 µg/mL
same,MIC,[31],0.06 µg/mL
same,MIC,[32],32 µg/mL
same,MIC,[33],4 µg/mL
same,MIC,[34],0.03 µg/mL
same,MIC,[35],0.06 µg/mL
same,MIC,[36],4 µg/mL
same,MIC,[37],4 µg/mL
same,MIC,[38],2 µg/mL
same,MIC,[39],8 µg/mL
same,MIC,[40],1 µg/mL
same,MIC,[41],4 µg/mL
same,MIC,[42],4 µg/mL
same,MIC,[43],8 µg/mL
same,MIC,[44],2 µg/mL
same,MIC,[45],4 µg/mL
same,MIC,[46],2 µg/mL
same,MIC,[47],16 µg/mL
same,MIC,[48],8 µg/mL
same,MIC,[49],4 µg/mL
same,MIC,[50],2 µg/mL
same,MIC,[51],2 µg/mL
same,MIC,[52],4 µg/mL
